Here are results for 17 molecules from patent publication US7323447B2, “Hepatitis C virus inhibitors” (Bristol-Myers Squibb Company, priority 2005, dated 2008).

Assay [1] deals with T1, HCV NS3/4A protease complex (BMS strain) (UniProt P27958).
T1 construct: other: HCV NS3/4A enzyme assay; said of H77 and J4L6S; fused on or other part: Three-lysine solubilising tail at the NS4A C-terminus and a His tag from pET21b (Ni-NTA purification), for the H77 and J4L6S constructs
Put plainly: FRET peptide assay to monitor HCV NS3/4A proteolytic activity, BMS strain. In kind it is biochemical, Hepatitis C virus (genotype 1a). The following applies: read-out: IC50 Range; HCV NS3/4A enzyme assay; Table 1. The text has this: HCV NS3 protease complexes, derived from the BMS strain, H77 strain or J4L6S strain, were generated, as described below. These purified recombinant proteins were generated for use in a homogeneous assay (see below) to provide an indication of how effective compounds of the present disclosure would be in inhibiting HCV NS3 proteolytic activity.
Serum from an HCV-infected patient was obtained from Dr. T. Wright, San Francisco Hospital. An engineered full-length cDNA (compliment deoxyribonucleic acid) template of the HCV genome (BMS strain) was constructed from DNA fragments obtained by reverse transcription-PCR (RT-PCR) of serum RNA (ribonucleic acid) and using primers selected on the basis of homology between other genotype 1a strains. From the determination of the entire genome sequence, a genotype 1a was assigned to the HCV isolate according to the classification of Simmonds et al. (See P Simmonds, K A Rose, S Graham, S W Chan, F McOmish, B C Dow, E A Follett, P L Yap and […] Marsden, J. Clin. Microbiol., 31(6), 1493-1503 (1993)). […] The infectious clones, H77 (1a genotype) and J4L6S (1b genotype) were obtained from R. Purcell (NIH) and the sequences are published in Genbank (AAB67036, see Yanagi, M., Purcell, R. H., Emerson, S. U. and Bukh, J. Proc. Natl. Acad. Sci. U.S.A. 94(16), 8738-8743 (1997); AF054247, see Yanagi, M., St Claire, M., Shapiro, M., Emerson, S. U., Purcell, R. H. and Bukh, J, Virology 244 (1), 161-172. (1998)).
NS3/4A protease complex-containing fractions were pooled and loaded on a desalting column Superdex-S200 pre-equilibrated with buffer D (25 mM HEPES, pH 7.5, 20% glycerol, 300 mM NaCl, 0.2% Triton X-100, 10 mM βME). Sample was loaded at a flow rate of 1 mL/min. NS3/4A protease complex-containing fractions were pooled and concentrated to approximately 0.5 mg/ml. The purity of the NS3/4A protease complexes, derived from the BMS, H77 and J4L6S strains, were judged to be greater than 90% by SDS-PAGE and mass spectrometry analyses. The enzyme was stored at −80° C., thawed on ice and diluted prior to use in assay buffer.
The purpose of this in vitro assay was to measure the inhibition of HCV NS3 protease complexes, derived from the BMS strain, H77 strain or J4L6S strain, as described above, by compounds of the present disclosure. This assay provides an indication of how effective compounds of the present disclosure would be in inhibiting HCV NS3 proteolytic activity.
In order to monitor HCV NS3/4A protease activity, an NS3/4A peptide substrate was used. The substrate was RET S1 (Resonance Energy Transfer Depsipeptide Substrate; AnaSpec, Inc. cat # 22991) (FRET peptide), described by Taliani et al. in Anal. Biochem. 240(2):60-67 (1996). The sequence of this peptide is loosely based on the NS4A/NS4B natural cleavage site for the HCV NS3 protease except there is an ester linkage rather than an amide bond at the cleavage site. The peptide also contains a fluorescence donor, EDANS, near one end of the peptide and an acceptor, DABCYL, near the other end. The fluorescence of the peptide is quenched by […] resonance energy transfer (RET) between the donor and the acceptor, but as the NS3 protease cleaves the peptide the products are released from RET quenching and the fluorescence of the donor becomes apparent.
The peptide substrate was incubated with one of the three recombinant NS3/4A protease complexes, in the absence or presence of a compound of the present disclosure. The inhibitory effects of a compound were determined by monitoring the formation of fluorescent reaction product in real time using a Cytofluor Series 4000.
Assay buffer: 50 mM HEPES, pH 7.5; 0.15 M NaCl; 0.1% Triton; 15% Glycerol; 10 mM βME. Substrate: 2 μM final concentration (from a 2 mM stock solution in DMSO stored at −20° C.). HCV NS3/4A protease type 1a (1b), 2-3 nM final concentration (from a 5 μM stock solution in 25 mM HEPES, pH 7.5, 20% glycerol, 300 mM NaCl, 0.2% Triton-X100, 10 mM βME). […]

For assay [2], the system named is HCV replicon in HUH-7 cells. Put plainly: HCV replicon FRET assay. It counts as cell-based, Hepatitis C virus (strain 1b). Particulars: Table 1. From the text:
An HCV replicon whole cell system was established as described by Lohmann V, Korner F, Koch J, Herian U, Theilmann L, Bartenschlager R., Science 285(5424): 110-3 (1999). This system enabled us to evaluate the effects of our HCV Protease compounds on HCV RNA replication. Briefly, using the HCV strain 1b sequence described in the Lohmann paper (Assession number: AJ238799), an HCV cDNA was synthesized by Operon Technologies, Inc. (Alameda, Calif.), and the full-length replicon was then assembled in plasmid pGem9zf(+) (Promega, Madison, Wis.) using standard molecular biology techniques. The replicon consists of (i) the HCV 5′ UTR fused to the first 12 amino acids of the capsid protein, (ii) the neomycin phosphotransferase gene (neo), (iii) the IRES from encephalomyocarditis virus (EMCV), and (iv) HCV NS3 to NS5B genes and the HCV 3′ UTR. Plasmid DNAs were linearized with ScaI and RNA transcripts were synthesized in vitro using the T7 MegaScript transcription kit (Ambion, Austin, Tex.) according to manufacturer's directions. In vitro transcripts of the cDNA were transfected into the human hepatoma cell line, HUH-7. […] Resulting cell lines were characterized for positive and negative strand RNA production and protein production over time.
The HCV replicon FRET assay was developed to monitor the inhibitory effects of compounds described in the disclosure on HCV viral replication. HUH-7 cells, constitutively expressing the HCV replicon, were grown in Dulbecco's Modified Eagle Media (DMEM) (Gibco-BRL) containing 10% Fetal calf serum (FCS) (Sigma) and 1 mg/ml G418 (Gibco-BRL). Cells were seeded the night before (1.5×10^4 cells/well) in 96-well tissue-culture sterile plates. Compound and no compound controls were prepared in DMEM containing 4% FCS, 1:100 Penicillin/Streptomysin (Gibco-BRL), 1:100 L-glutamine and 5% DMSO in the dilution plate (0.5% DMSO final concentration in the assay). Compound/DMSO mixes were added to the cells and incubated for 4 days at 37° C. After 4 days, cells were first assessed for cytotoxicity using alamar Blue (Trek Diagnotstic Systems) for a CC50 reading. The toxicity of compound (CC50) was determined by adding 1/10th volume of alamarBlue to the media incubating the cells. After 4 h, the fluorescence signal from each well was read, with an excitation wavelength at 530 nm and an emission wavelength of 580 nm, using the Cytofluor Series 4000 (Perspective Biosystems). Plates were then rinsed thoroughly with Phosphate-Buffered Saline (PBS) (3 times 150 μl). The cells were lysed with 25 μl of a lysis assay reagent containing an HCV protease substrate (5× cell Luciferase cell culture lysis reagent (Promega #E153A) diluted to 1× with distilled water, NaCl added to 150 mM final, the FRET peptide substrate (as described for the enzyme assay above) diluted to 10 μM final from a 2 mM stock in 100% DMSO. The plate was then placed into the Cytofluor 4000 instrument which had been set to 340 nm excitation/490 nm emissions, automatic mode for 21 cycles and the plate read in a kinetic mode. EC50 determinations were carried out as described for the IC50 determinations.
(In antiviral work, replicon cells carry a viral genome segment that copies itself.)

Setting [3] is: read-out: EC50 Range, HCV replicon cell assay.
Setting [4] is: Hepatitis C virus, Huh-7, read-out: EC50 Range, HCV replicon cell assay.

Like-named read-outs stand apart in the source and are kept apart here.

Usually IC50 stands for the concentration that inhibits the measured activity by half. What is called EC50 is the concentration needed to bring the measured effect to its halfway point.

T1 sequence (P27958 1027-1657, one chain of several): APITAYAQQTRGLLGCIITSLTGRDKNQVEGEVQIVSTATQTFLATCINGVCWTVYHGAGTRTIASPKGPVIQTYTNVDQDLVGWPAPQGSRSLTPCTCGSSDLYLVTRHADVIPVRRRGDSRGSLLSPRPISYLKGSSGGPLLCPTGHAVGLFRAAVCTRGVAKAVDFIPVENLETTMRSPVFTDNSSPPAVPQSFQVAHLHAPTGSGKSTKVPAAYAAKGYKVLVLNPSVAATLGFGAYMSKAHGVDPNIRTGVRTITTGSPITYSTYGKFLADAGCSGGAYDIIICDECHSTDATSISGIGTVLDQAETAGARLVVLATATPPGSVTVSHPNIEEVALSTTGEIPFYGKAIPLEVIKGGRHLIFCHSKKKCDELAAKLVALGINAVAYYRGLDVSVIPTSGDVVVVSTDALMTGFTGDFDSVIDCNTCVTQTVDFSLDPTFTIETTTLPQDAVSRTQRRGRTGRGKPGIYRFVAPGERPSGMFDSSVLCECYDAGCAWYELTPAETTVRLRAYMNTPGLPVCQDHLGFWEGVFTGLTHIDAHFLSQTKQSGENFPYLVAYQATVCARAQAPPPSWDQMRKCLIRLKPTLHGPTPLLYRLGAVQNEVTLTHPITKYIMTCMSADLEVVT

On to `C=C[C@@H]1C[C@]1(NC(=O)[C@@H]1C[C@@H](Oc2nccc3cc(OC)ccc23)CN1C(=O)[C@@H](OC(=O)NC1CCCC1)C(C)C)C(=O)NS(=O)(=O)C1CC1` (stereo in doubt) [Example 53Compound 53], for which the IC50 in assay [1] was over 1000 nM. For the same molecule, the EC50 in assay [2] (setting [3]) was over 5 µM.

Turning to `C=CCCCCCC(O)C(=O)N1C[C@H](Oc2nc(-c3ccccc3)cc3cc(OC)ccc23)CC1C(=O)N[C@]1(C(=O)NS(=O)(=O)C2CC2)CC1C=C` (some centres unmarked) [Example 21], in assay [1], the IC50 is 100 to 1000 nM.

Take `C=C[C@@H]1C[C@]1(NC(=O)C1CC(Oc2cc(-c3ccccc3)nc3cc(OC)ccc23)CN1C(=O)[C@@H](O)C(C)(C)C)C(=O)NS(=O)(=O)C1CC1` (some centres unmarked) [Example 4,Compound 8]: in assay [1], the IC50 is under 100 nM. In assay [2] (setting [4]), the concentration giving a half-maximal response (EC50) is 0.5 to 5 µM.

Regarding `CCC1C[C@]1(NC(=O)[C@@H]1C[C@@H](Oc2cc(-c3ccccc3)nc3cc(OC)ccc23)CN1C(=O)C(O)Cc1c[nH]cn1)C(=O)NS(=O)(=O)C1CC1` (some centres unmarked) [Example 16], the IC50 in assay [1] is 100 to 1000 nM. The concentration for a half-maximal effect (EC50) in assay [2] (setting [4]) is over 5 µM.

Take `C=C[C@@H]1C[C@]1(NC(=O)[C@@H]1C[C@@H](Oc2cc(-c3ccccc3)nc3cc(OC)ccc23)CN1C(=O)C(O)c1ccccc1)C(=O)NS(=O)(=O)C1CC1` (some centres unmarked) [Example 14]: in assay [1], the IC50 lay in the range of 100 to 1000 nM. Moreover, the concentration for a half-maximal effect (EC50) in assay [2] (setting [4]) is over 5 µM.

Consider `C=C[C@@H]1C[C@]1(NC(=O)[C@@H]1C[C@@H](Oc2ncnc3ccccc23)CN1C(=O)[C@@H](OC(=O)NC(C)(C)C)C(C)(C)C)C(=O)NS(=O)(=O)C1CC1` [Example 57Compound 57], for which the IC50 in assay [1] is 100 to 1000 nM. The EC50 in assay [2] (setting [4]) was 0.5 to 5 µM.

Take `C=C[C@@H]1C[C@]1(NC(=O)[C@@H]1C[C@@H](Oc2cc(-c3ccccc3)nc3cc(OC)ccc23)CN1C(=O)[C@@H](OC(=O)Nc1ccc(N(C)C)cc1)C(C)(C)C)C(=O)NS(=O)(=O)C1CC1` [Example 5,Compound 7]: the IC50 in assay [1] lay in the range of 100 to 1000 nM. In assay [2] (setting [4]), the EC50 was 0.5 to 5 µM.

As for `C=C[C@@H]1C[C@]1(NC(=O)[C@@H]1C[C@@H](Oc2nccc3ccccc23)CN1C(=O)[C@@H](OC(=O)Nc1ccc(C(C)(C)C)cc1)C(C)(C)C)C(=O)NS(=O)(=O)C1CC1` [Example 33], the half-maximal inhibitory concentration (IC50) in assay [1] lay within 100 to 1000 nM. Besides, in assay [2] (setting [4]), the EC50 was 0.5 to 5 µM.

As for `C=C[C@@H]1C[C@]1(NC(=O)[C@@H]1C[C@@H](Oc2cc(-c3cccs3)cc(-c3ccccc3)n2)CN1C(=O)[C@@H](OC(=O)NC(C)(C)C)C(C)(C)C)C(=O)NS(=O)(=O)C1CC1` [Example 55Compound 55], in assay [1], the half-inhibitory concentration (IC50) is under 100 nM. Further, in assay [2] (setting [4]), the concentration giving a half-maximal response (EC50) fell in the range of 0.5 to 5 µM.

In the case of `C=C[C@@H]1C[C@]1(NC(=O)[C@@H]1C[C@@H](Oc2nccc3ccccc23)CN1C(=O)[C@@H](OC(=O)Nc1ccc(F)cc1)C(C)(C)C)C(=O)NS(=O)(=O)C1CC1` [Example 30], the IC50 in assay [1] was in the range of 100 to 1000 nM. For the same molecule, the EC50 in assay [2] (setting [4]) is 0.5 to 5 µM.

Regarding `C=C[C@@H]1C[C@]1(NC(=O)[C@@H]1C[C@@H](Oc2nccc3ccccc23)CN1C(=O)[C@@H](OC(=O)NCC)C(C)(C)C)C(=O)NS(=O)(=O)C1CC1` [Example 25], the IC50 in assay [1] was 100 to 1000 nM. Moreover, the half-maximal effective concentration (EC50) in assay [2] (setting [4]) lay within 0.5 to 5 µM.

Take `C=C[C@@H]1C[C@]1(NC(=O)[C@@H]1C[C@@H](Oc2nccc3ccccc23)CN1C(=O)[C@@H](OC(=O)NC1CCCCC1)C(C)(C)C)C(=O)NS(=O)(=O)C1CC1` [Example 27]: the IC50 in assay [1] is under 100 nM. Further, the EC50 in assay [2] (setting [4]) was in the range of 0.5 to 5 µM.

Consider `C=C[C@@H]1C[C@]1(NC(=O)[C@@H]1C[C@@H](Oc2nc(-c3ccc(OC(F)(F)F)cc3)cc3cc(OC)ccc23)CN1C(=O)[C@@H](O)C(C)(C)COC)C(=O)NS(=O)(=O)C1CC1` [Example 63Compound 63], for which, in assay [1], the IC50 is under 100 nM. Further, the EC50 in assay [2] (setting [4]) lay within 0.5 to 5 µM.

In the case of `C=C[C@@H]1C[C@]1(NC(=O)[C@@H]1C[C@@H](Oc2nccc3cc(OC)ccc23)CN1C(=O)[C@@H](O)C(C)C)C(=O)NS(=O)(=O)C1CC1` (stereo in doubt) [Example 52Compound 52], the IC50 in assay [1] is 100 to 1000 nM. In assay [2] (setting [3]), the concentration giving a half-maximal response (EC50) was over 5 µM.

On to `C=C[C@@H]1C[C@]1(NC(=O)[C@@H]1C[C@@H](Oc2nccc3ccccc23)CN1C(=O)[C@@H](OC(=O)Nc1ccc(OC)cc1)C(C)(C)C)C(=O)NS(=O)(=O)C1CC1` [Example 31], for which the 50% inhibitory concentration (IC50) in assay [1] lay in the range of 100 to 1000 nM. Further, the concentration giving a half-maximal response (EC50) in assay [2] (setting [4]) lay in the range of 0.5 to 5 µM.

For the molecule `C=C[C@@H]1C[C@]1(NC(=O)[C@@H]1C[C@@H](Oc2cc(-c3ccccc3)nc3cc(OC)ccc23)CN1C(=O)[C@@H](OC(=O)NC(C)C)C(C)(C)C)C(=O)NS(=O)(=O)C1CC1` [Example 5,Compound 2], in assay [1], the half-inhibitory concentration (IC50) was under 100 nM. Also, in assay [2] (setting [4]), the EC50 is under 0.5 µM.

Consider `C=C[C@@H]1C[C@]1(NC(=O)[C@@H]1C[C@@H](Oc2cc(-c3ccccc3)nc3cc(OC)ccc23)CN1C(=O)C1CC1)C(=O)NS(=O)(=O)C1CC1` [Example 19], for which the IC50 in assay [1] was 100 to 1000 nM.
